Measured values: ChEMBL document CHEMBL1134991, “Alpha(1)-adrenoceptor activation: a comparison of 4-(anilinomethyl)imidazoles and 4-(phenoxymethyl)imidazoles to related 2-imidazolines” (Bioorg Med Chem Lett, 2002)

Key:
[1] = target: T1, Alpha-1A adrenergic receptor (Homo sapiens, UniProt P35348); experiment: In vitro binding affinity against cloned human alpha-1A-adrenoceptor receptors expressed in rat-1 fibroblasts
T1 sequence (P35348 whole entry): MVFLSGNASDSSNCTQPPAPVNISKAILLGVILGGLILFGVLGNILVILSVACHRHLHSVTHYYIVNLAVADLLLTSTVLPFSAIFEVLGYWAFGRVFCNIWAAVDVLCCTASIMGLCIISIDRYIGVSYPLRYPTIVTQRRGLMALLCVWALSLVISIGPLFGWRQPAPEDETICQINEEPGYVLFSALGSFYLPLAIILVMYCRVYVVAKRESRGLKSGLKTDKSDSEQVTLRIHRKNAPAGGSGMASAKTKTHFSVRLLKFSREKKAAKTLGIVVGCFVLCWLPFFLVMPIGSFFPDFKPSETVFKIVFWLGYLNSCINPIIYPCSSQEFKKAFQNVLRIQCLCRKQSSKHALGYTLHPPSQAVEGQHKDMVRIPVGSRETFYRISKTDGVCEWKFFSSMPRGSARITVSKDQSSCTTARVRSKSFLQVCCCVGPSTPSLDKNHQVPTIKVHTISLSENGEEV

[2] = target: T2, Alpha-1B adrenergic receptor (Homo sapiens, UniProt P35368); experiment: In vitro binding affinity against cloned human alpha-1B-adrenoceptor receptors expressed in rat-1 fibroblasts
T2 sequence (P35368 whole entry): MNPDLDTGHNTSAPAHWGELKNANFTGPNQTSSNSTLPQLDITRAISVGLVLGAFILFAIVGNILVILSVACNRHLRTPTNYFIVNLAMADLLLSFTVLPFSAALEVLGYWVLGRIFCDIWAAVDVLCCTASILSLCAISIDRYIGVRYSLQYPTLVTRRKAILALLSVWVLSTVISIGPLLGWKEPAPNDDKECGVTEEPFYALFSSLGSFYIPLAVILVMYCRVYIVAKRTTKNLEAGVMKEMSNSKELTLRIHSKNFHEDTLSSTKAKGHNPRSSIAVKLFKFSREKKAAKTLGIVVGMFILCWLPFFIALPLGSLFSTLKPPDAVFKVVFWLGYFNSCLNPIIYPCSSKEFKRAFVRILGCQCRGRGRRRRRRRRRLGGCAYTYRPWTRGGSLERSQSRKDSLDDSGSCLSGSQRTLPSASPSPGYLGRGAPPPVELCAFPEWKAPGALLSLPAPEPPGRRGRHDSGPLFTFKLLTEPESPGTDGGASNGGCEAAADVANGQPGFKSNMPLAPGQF

[3] = target: T3, Alpha-1D adrenergic receptor (Homo sapiens, UniProt P25100); experiment: In vitro binding affinity against cloned human alpha-1D-adrenoceptor receptors expressed in rat-1 fibroblasts
T3 sequence (P25100 whole entry): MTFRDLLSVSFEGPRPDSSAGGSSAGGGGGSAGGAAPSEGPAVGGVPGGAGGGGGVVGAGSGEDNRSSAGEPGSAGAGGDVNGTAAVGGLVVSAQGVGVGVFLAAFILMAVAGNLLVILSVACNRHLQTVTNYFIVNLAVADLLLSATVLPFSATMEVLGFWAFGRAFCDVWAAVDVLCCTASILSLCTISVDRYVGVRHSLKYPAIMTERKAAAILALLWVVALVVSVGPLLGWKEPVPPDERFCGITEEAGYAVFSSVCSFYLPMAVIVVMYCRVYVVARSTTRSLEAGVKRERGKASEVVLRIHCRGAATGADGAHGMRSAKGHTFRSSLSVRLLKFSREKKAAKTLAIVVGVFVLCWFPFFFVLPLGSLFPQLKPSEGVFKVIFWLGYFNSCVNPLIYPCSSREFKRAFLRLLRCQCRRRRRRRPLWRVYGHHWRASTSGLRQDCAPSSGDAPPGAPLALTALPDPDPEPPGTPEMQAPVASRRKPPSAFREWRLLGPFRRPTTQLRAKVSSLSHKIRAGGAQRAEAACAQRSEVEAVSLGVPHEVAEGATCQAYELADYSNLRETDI

[4] = target: T4, Alpha-1A adrenergic receptor (Homo sapiens) (UniProt P35348); experiment: Activation of human alpha-1A adrenergic receptor expressed in rat-1 fibroblasts; expressed as a percent of the maximal effect of the phenylephrine; format: functional
T4 sequence (whole entry): T1 sequence (P35348 whole entry)

[5] = target: T1, Alpha-1A adrenergic receptor; experiment: Activation of human alpha-1A adrenergic receptor expressed in rat-1 fibroblasts; format: functional
[6] = target: T2, Alpha-1B adrenergic receptor; experiment: Activation of human alpha-1B adrenergic receptors expressed in rat-1 fibroblasts; format: functional
[7] = target: T3, Alpha-1D adrenergic receptor; experiment: Activation of human Alpha-1D adrenergic receptors expressed in rat-1 fibroblasts; format: functional
[8] = Acid dissociation constant for the compound was determined; format: ADME
[9] = target: T5, Alpha-1B adrenergic receptor (Homo sapiens) (UniProt P35368); experiment: Activation of human alpha-1B-adrenoceptor receptors expressed in rat-1 fibroblasts as percent maximal effect relative to phenylephrine; format: functional
T5 sequence (whole entry): T2 sequence (P35368 whole entry)

[10] = target: T6, Alpha-1D adrenergic receptor (Homo sapiens) (UniProt P25100); experiment: Activation of human alpha-1D-adrenoceptor receptor expressed in rat-1 fibroblasts relative to phenylephrine; format: functional
T6 sequence (whole entry): T3 sequence (P25100 whole entry)

[11] = target: T7, Adrenergic receptor alpha-1 (Rattus norvegicus, UniProt P15823+P23944+P43140); experiment: Inhibition of binding of [3H]-prazosin at alpha1 adrenoceptors isolated from rat brain
T7 sequence (P15823 whole entry): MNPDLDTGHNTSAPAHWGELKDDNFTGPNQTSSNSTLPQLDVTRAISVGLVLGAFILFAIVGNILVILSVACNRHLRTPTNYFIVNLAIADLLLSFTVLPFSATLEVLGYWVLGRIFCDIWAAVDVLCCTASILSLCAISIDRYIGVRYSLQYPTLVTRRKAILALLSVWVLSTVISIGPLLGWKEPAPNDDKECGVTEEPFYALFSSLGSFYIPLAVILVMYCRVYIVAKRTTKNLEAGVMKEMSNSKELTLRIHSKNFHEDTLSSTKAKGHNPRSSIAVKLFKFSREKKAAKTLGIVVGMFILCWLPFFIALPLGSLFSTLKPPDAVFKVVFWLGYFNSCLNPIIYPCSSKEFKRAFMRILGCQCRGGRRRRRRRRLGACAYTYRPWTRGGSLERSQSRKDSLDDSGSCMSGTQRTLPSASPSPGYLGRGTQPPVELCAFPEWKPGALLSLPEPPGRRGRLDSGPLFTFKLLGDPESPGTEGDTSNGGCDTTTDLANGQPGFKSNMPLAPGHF
T7 sequence (P23944 whole entry): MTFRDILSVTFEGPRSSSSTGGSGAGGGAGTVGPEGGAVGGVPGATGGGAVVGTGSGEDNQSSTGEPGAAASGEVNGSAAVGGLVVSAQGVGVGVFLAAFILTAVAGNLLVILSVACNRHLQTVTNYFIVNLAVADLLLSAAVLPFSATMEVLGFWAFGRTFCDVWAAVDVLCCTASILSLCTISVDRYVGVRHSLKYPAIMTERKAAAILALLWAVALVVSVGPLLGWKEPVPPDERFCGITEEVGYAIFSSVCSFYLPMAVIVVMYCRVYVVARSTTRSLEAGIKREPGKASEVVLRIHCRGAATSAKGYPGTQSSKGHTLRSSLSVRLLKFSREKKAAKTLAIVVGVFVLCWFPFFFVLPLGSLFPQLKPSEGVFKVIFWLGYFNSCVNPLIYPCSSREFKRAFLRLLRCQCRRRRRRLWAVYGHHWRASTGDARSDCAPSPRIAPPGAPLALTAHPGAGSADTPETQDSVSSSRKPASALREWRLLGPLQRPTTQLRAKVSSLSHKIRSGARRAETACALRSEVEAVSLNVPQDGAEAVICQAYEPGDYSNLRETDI
T7 sequence (P43140 whole entry): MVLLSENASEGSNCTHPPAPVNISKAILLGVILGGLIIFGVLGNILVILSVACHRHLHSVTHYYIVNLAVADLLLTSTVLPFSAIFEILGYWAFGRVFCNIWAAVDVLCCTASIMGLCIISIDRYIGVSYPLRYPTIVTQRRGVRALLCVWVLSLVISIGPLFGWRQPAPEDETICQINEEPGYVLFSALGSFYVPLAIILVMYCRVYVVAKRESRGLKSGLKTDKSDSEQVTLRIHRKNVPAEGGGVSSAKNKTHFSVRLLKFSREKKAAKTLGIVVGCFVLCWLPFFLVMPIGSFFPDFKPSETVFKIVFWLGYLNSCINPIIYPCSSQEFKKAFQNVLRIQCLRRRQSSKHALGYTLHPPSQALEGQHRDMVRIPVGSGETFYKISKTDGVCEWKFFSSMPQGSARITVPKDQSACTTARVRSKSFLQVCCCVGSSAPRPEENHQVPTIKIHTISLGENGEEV

Compound | IC50 [1] [nM] | IC50 [2] [nM] | IC50 [3] [nM] | Max [4] [%] | EC50 [5] [nM] | EC50 [6] [nM] | EC50 [7] [nM] | pKa [8] | Max [9] [%] | Max [10] [%] | IC50 [11] [nM]
CCCNC(=O)c1ccccc1NCC1=NCCN1 | 282 | 1700 | 513 | – | – | – | – | – | – | – | –
c1ccc(-c2ccno2)c(OCc2c[nH]cn2)c1 | – | – | – | 91 | 158 | > 100000 | > 100000 | – | – | – | –
CSc1ccccc1NCc1cnc[nH]1 | 170 | 891 | 57.5 | – | 10 | 25.1 | 20 | 6.5 | – | – | –
c1ccc(-c2ccno2)c(OCC2=NCCN2)c1 | – | – | – | 91 | 6.31 | 100 | 100 | – | 81 | 34 | –
c1ccc(-c2cnco2)c(NCc2c[nH]cn2)c1 | – | – | – | 120 | 50.1 | > 5010 | > 251 | – | – | 51 | –
CSc1ccccc1NCc1c[nH]cn1 | – | – | – | 94 | – | – | – | – | 78 | 36 | –
Cc1ccc(C)c(OCc2c[nH]cn2)c1 | – | – | – | – | – | – | – | – | – | – | 102
c1ccc(-c2ccccc2OCc2c[nH]cn2)cc1 | 302 | 5890 | 933 | 102 | 15.8 | > 100000 | > 100000 | – | – | – | –
c1ccc(N2CCCCC2)c(NCc2c[nH]cn2)c1 | – | – | – | 95 | 50.1 | > 5010 | > 5010 | – | – | – | –
Oc1ccc2cccc(NCc3c[nH]cn3)c2c1 | – | – | – | 100 | 63.1 | > 5010 | > 5010 | – | – | – | –
CCN(CC)C(=O)c1ccccc1OCc1c[nH]cn1 | > 30200 | > 30200 | > 30200 | – | > 100000 | > 100000 | > 100000 | – | – | – | –
c1ccc(-c2cnco2)c(NCC2=NCCN2)c1 | – | – | – | 107 | 20 | > 5010 | > 5010 | – | – | – | –
CS(=O)(=O)c1ccccc1NCC1=NCCN1 | – | – | – | 105 | 50.1 | > 100000 | > 100000 | – | – | – | –
Oc1ccc2cccc(NCC3=NCCN3)c2c1 | – | – | – | 110 | 6.31 | > 5010 | 31.6 | – | – | 53 | –
CCN(CC)C(=O)c1ccccc1OCC1=NCCN1 | > 30200 | > 30200 | > 30200 | – | > 100000 | > 100000 | > 100000 | – | – | – | –
c1ccc(N2CCCCC2)c(NCC2=NCCN2)c1 | – | – | – | 114 | 12.6 | > 5010 | > 5010 | – | – | – | –
COc1ccc(S(C)(=O)=O)c(NCC2=NCCN2)c1 | – | – | – | – | 12.6 | > 100000 | > 100000 | – | – | – | –
Clc1cccc(Cl)c1NCc1c[nH]cn1 | – | – | – | – | – | – | – | – | – | – | 263
CCCNC(=O)c1ccccc1NCc1c[nH]cn1 | 77.6 | 3020 | 871 | 100 | 3.98 | 316 | 79.4 | – | 89 | 77 | –
c1ccc(-c2ccccc2OCC2=NCCN2)cc1 | 66.1 | 2400 | 550 | 96 | – | – | – | – | – | – | –
CCN(CC)C(=O)c1ccccc1NCc1c[nH]cn1 | – | – | – | 114 | 63.1 | > 5010 | > 5010 | – | – | – | –
c1ccc(-c2ccccc2OCC2=NCCN2)nc1 | – | – | – | 104 | – | – | – | – | – | – | –
CS(=O)(=O)c1ccccc1NCc1c[nH]cn1 | – | – | – | 97 | 126 | > 100000 | > 100000 | – | – | – | –
